Laboratory results taken from patent publication US20080119451A1, “Novel Benzamide Derivatives” (ASTRAZENECA AB, priority 2005, published 2008).

Columns and labels:
recombinant human HDAC1 = molecular target: T1, recombinant human HDAC1 (Homo sapiens, UniProt Q13547); test: In vitro enzyme assay of recombinant HDAC1 (Fluor de Lys deacetylase assay); assay type: biochemical; conditions: recombinant human HDAC1 produced in Hi5 insect cells; acetylated histone H4 peptide substrate; read-out: Test (a) IC50
T1 construct: FLAG (C); made in house; host or cells: Hi5 insect cells
T1 sequence (Q13547 whole entry): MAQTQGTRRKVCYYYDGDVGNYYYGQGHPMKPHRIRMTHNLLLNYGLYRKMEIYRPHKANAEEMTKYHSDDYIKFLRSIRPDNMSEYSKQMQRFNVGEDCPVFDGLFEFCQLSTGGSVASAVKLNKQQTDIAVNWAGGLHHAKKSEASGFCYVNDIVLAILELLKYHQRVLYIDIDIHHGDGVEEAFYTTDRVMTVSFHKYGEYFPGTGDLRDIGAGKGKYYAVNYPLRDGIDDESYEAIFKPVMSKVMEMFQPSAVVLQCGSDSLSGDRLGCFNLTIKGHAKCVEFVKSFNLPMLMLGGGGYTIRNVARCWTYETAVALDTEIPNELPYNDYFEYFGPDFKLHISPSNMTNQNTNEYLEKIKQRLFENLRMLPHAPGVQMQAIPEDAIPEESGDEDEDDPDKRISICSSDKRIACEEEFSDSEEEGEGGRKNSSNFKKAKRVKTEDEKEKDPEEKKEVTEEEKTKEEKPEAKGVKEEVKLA
Protocol: (a) In Vitro Enzyme Assay of Recombinant HDAC1
HDAC inhibitors were screened against recombinant human HDAC1 produced in Hi5 insect cells. The enzyme was cloned with a FLAG tag at the C-terminal of the gene and affinity purified using Anti-FLAG M2 agarose from SIGMA (A2220).
The deacetylase assays were carried out in a 50 μl reaction. […] The reaction was stopped by addition of an equal volume (50 μl) Fluor de Lys developer (Biomol) containing Trichostatin A at 2 μM. […] IC50 values for HDAC enzyme inhibitors were determined by performing dose response curves with individual compounds and determining the concentration of inhibitor producing fifty percent decrease in the maximal signal (diluent control).

HCT116 cells = test: In vitro assay of inhibition of proliferation in whole cells (Promega MTS assay); assay type: cell-based; conditions: Homo sapiens, HCT-116, 72 hours treatment, read-out: Test (b) IC50
Protocol: (b) In Vitro Assay of Inhibition of Proliferation in Whole Cells
Inhibition of proliferation in whole cells was assayed using the Promega cell titer 96 aqueous proliferation assay (Promega #G5421). HCT116 cells were seeded in 96 well plates at 1×10^3 cells/well, and allowed to adhere overnight. They were treated with inhibitors for 72 hours. 20 μl of the tetrazolium dye MTS was added to each well and the plates were reincubated for 3 hours. Absorbance was then measured on a 96 well plate reader at […]. The IC50 values for HDAC inhibitors were determined by performing dose response curves with individual compounds and determining the concentration of inhibitor producing fifty percent decrease in maximal signal (diluent control).

SMILES	IC50 (recombinant human HDAC1) [µM]	IC50 (HCT116 cells) [µM]
Cc1cc(CN2CCN(C(C)C)CC2)cnc1-c1ccc(C(=O)Nc2ccccc2N)cc1 [Example 2, N-(2-aminophenyl)-4-{5-[(4-isopropylpiperazin-1-yl)methyl]-3-methylpyridin-2-yl}benzamide]	0.019	0.238
Cc1cc(CN2CCC2)cnc1-c1ccc(C(=O)Nc2ccccc2N)cc1 [Example 4, N-(2-aminophenyl)-4-[5-(azetidin-1-ylmethyl)-3-methylpyridin-2-yl]benzamide]	0.021	0.31
Nc1ccccc1NC(=O)c1ccc(-c2ccccn2)cc1 [Comparator, N-(2-aminophenyl)-4-pyridin-2-ylbenzamide, reference compound]	0.089	2.33
